Data reported in patent US8658644B2, “Pyridazine derivatives, processes for their preparation and their use as fungicides” (Syngenta Crop Protection, LLC, priority 2011, dated 2014).

Assays:
Alternaria Solani = assay: Alternaria solani / tomato / preventative; format: in vivo; conditions: tomato plants cv. Roter Gnom, inoculated two days after application, leaf area covered by disease 5 to 7 days after application, read-out: inhibited fungal infestation
Protocol: (§1) Alternaria Solani/Tomato/Preventative (Action Against Alternaria on Tomato) 4-week old tomato plants cv. Roter Gnom were treated with the formulated test compound in a spray chamber. The test plants were inoculated by spraying them with a spore suspension two days after application. The inoculated test plants were incubated at 22/18° C. (day/night) and 95% rh in a greenhouse and the percentage leaf area covered by disease was assessed when an appropriate level of disease appears on untreated check plants (5 to 7 days after application).

[1] = system: Botryotinia fuckeliana (Botrytis cinerea); assay: Botryotinia fuckeliana (Botrytis cinerea) / tomato / preventative; format: in vivo; conditions: tomato plants cv. Roter Gnom, inoculated two days after application, leaf area covered by disease 5 to 6 days after application, read-out: inhibited fungal infestation
Protocol: as §1, with “Botryotinia fuckeliana (Botrytis cinerea)/Tomato/Preventative” for “Alternaria Solani/Tomato/Preventative”, “Botrytis” for “Alternaria”, “20°” for “22/18°”, “C.” for “C. (day/night)”, “is” for “was”, “6” for “7”

[2] = system: Erysiphe necator (Uncinula necator); assay: Erysiphe necator (Uncinula necator) / grape / preventative; format: in vivo; conditions: grape seedlings cv. Gutedel, inoculated 1 day after application, leaf area covered by disease 7 to 9 days after application, read-out: inhibited fungal infestation
Protocol: Erysiphe necator (Uncinula necator)/Grape/Preventative (Action Against Powdery Mildew on Grape) 5-week old grape seedlings cv. Gutedel were treated with the formulated test compound in a spray chamber. The test plants are inoculated by shaking plants infected with grape powdery mildew above them 1 day after application. The inoculated test plants were incubated at 24/22° C. (day/night) and 70% rh under a light regime of 14/10 h (light/dark) and the percentage leaf area covered by disease was assessed when an appropriate level of disease appears on untreated check plants (7 to 9 days after application).

[3] = system: Magnaporthe grisea (Pyricularia oryzae); assay: whole plant or invertebrate; format: in vivo; conditions: read-out: inhibited fungal infestation
[4] = system: Mycosphaerella graminicola (Septoria tritici); assay: Mycosphaerella graminicola (Septoria tritici) / wheat / preventive; format: in vivo; conditions: Zymoseptoria tritici, wheat plants cv. Riband, inoculated one day after application, leaf area covered by disease 16 to 19 days after application, read-out: inhibited fungal infestation
Protocol: Mycosphaerella graminicola (Septoria tritici)/Wheat/Preventive (Action Against Septoria Leaf Spot on Wheat) 2-week old wheat plants cv. Riband were treated with the formulated test compound in a spray chamber. The test plants were inoculated by spraying a spore suspension on them one day after application. After an incubation period of 1 day at 22° C./21° C. (day/night) and 95% rh, the test plants were kept at 22° C./21° C. (day/night) and 70% rh in a greenhouse. The percentage leaf area covered by disease is assessed when an appropriate level of disease appears on untreated check plants (16 to 19 days after application).

[5] = system: Mycosphaerella graminicola (Septoria tritici); assay: Mycosphaerella graminicola (Septoria tritici) / wheat / curative; format: in vivo; conditions: Zymoseptoria tritici, wheat plants cv. Riband, treated 5 days after inoculation, leaf area covered by disease 11 to 14 days after application, read-out: inhibited fungal infestation
Protocol: Mycosphaerella graminicola (Septoria tritici)/Wheat/Curative (Action Against Septoria Leaf Spot on Wheat) 2-week old wheat plants cv. Riband are inoculated by spraying them with a spore suspension. After an incubation period of 2 days at 22° C./21° C. (day/night) and 95% rh, the test plants are kept at 22° C./21° C. (day/night) and 70% rh in a climate chamber. The inoculated test plants are treated with the formulated test compound in a spray chamber 5 days after inoculation. The percentage leaf area covered by disease is assessed when an appropriate level of disease appears on untreated check plants (11 to 14 days after application).

Puccinia recondita = Puccinia recondita / wheat / preventative; format: in vivo; conditions: wheat plants cv. Arina, inoculated one day after application, leaf area covered by disease 12 to 14 days after application, read-out: inhibited fungal infestation
Protocol: Puccinia recondita/Wheat/Preventative (Action Against Brown Rust on Wheat) 2-week old wheat plants cv. Arina were treated with the formulated test compound in a spray chamber. The test plants were inoculated by spraying them with a spore suspension one day after application. After an incubation period of 1 day at 20° C. and 95% rh, the test plants were kept at 20° C./18° C. (day/night) and 60% rh in a greenhouse. The percentage leaf area covered by disease was assessed when an appropriate level of disease appears on untreated check plants (12 to 14 days after application).

[6] = system: Pyrenophora teres (Helminthosporium teres); assay: Pyrenophora teres (Helminthosporium teres) / barley / preventative; format: in vivo; conditions: barley plants cv. Regina, inoculated 2 days after application, leaf area covered by disease 5 to 7 days after application, read-out: inhibited fungal infestation
Protocol: Pyrenophora teres (Helminthosporium teres)/Barley/Preventative (Action Against Net Blotch on Barley) 1-week old barley plants cv. Regina were treated with the formulated test compound in a spray chamber. The test plants were inoculated by spraying them with a spore suspension 2 days after application. The inoculated test plants were incubated at 20° C. and 95% rh and the percentage leaf area covered by disease was assessed when an appropriate level of disease appears on untreated check plants (5 to 7 days after application).

Compound	melting point [°C]	inhibition at 200 ppm (Alternaria Solani) [%]	inhibition at 200 ppm [1] [%]	inhibition at 200 ppm [2] [%]	inhibition at 200 ppm [3] [%]	inhibition at 200 ppm [4] [%]	inhibition at 200 ppm [5] [%]	inhibition at 200 ppm (Puccinia recondita) [%]	inhibition at 200 ppm [6] [%]
C#Cc1ccc(-c2c(C)n[nH]c(=O)c2-c2c(F)cc(F)cc2F)cc1 [Compound 1, 5-(4-ethynylphenyl)-6-methyl-4-(2,4,6-trifluorophenyl)-2H-pyridazin-3-one]	252 to 254								
C#Cc1ccc(-c2c(C)nnc(Cl)c2-c2c(F)cc(F)cc2F)cc1 [Compound 2, 3-chloro-5-(4-ethynylphenyl)-6-methyl-4-(2,4,6-trifluorophenyl)pyridazine]	174 to 175	≥ 80	≥ 80	≥ 80	≥ 80	≥ 80	≥ 80	≥ 80	≥ 80
C#Cc1ccc(-c2c(C)nnc(OC)c2-c2c(F)cc(OC)cc2F)cc1 [Compound 4, 4-(2,6-difluoro-4-methoxyphenyl)-5-(4-ethynylphenyl)-3-methoxy-6-methylpyridazine]	192 to 193	≥ 80	≥ 80		≥ 80	≥ 80	≥ 80		≥ 80
